Laboratory results taken from paper PMC6934184, “Selective DNA-PKcs inhibition extends the therapeutic index of localized radiotherapy and chemotherapy” (The Journal of Clinical Investigation, 2019).

Molecular target: T1, TEK (TIE2) R849W (Homo sapiens, UniProt Q02763, R849W)
T1 construct: purchased Thermo Fisher Scientific (Life Technologies) SelectScreen
Assay: SelectScreen LanthaScreen
Type: binding
Settings: read-out: % displacement
In short: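 Percent values come from Thermo SelectScreen profiling of NU5455, combining activity and binding assays. CSF1R was run in Z'LYTE format at Km app ATP, and CAMK1 in Adapta format with ATP listed at 10.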

T1 sequence (Q02763 23-1124 R849W): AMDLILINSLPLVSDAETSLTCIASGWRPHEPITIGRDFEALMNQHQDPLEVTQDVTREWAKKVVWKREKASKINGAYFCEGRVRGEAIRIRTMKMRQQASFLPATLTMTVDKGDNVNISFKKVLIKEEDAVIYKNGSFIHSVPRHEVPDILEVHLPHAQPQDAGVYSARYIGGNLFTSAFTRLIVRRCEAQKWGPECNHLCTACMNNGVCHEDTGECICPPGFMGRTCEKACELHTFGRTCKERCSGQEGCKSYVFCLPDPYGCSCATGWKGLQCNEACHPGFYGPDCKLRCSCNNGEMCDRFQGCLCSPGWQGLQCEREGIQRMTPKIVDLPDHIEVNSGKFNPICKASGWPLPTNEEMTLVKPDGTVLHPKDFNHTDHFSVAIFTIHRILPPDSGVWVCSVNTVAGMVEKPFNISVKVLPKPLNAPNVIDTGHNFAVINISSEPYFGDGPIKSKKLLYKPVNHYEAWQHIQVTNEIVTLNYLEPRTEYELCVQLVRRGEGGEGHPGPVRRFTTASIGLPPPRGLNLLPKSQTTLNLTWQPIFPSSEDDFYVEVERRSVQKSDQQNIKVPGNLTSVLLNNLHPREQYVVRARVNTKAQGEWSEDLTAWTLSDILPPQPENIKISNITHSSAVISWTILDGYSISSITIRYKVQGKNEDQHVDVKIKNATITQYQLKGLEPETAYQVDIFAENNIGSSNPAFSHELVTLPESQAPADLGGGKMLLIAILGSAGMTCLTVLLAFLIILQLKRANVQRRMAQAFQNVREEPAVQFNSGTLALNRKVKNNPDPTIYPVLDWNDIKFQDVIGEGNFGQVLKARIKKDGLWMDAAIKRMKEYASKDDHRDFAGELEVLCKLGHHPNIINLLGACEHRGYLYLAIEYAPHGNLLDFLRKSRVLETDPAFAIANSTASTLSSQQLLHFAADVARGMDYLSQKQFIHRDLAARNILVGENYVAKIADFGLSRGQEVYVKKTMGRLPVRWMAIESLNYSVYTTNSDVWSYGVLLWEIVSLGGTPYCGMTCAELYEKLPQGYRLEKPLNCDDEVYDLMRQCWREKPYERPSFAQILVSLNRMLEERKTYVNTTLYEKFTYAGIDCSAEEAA

CN(C(=O)CN1CCOCC1)c1ccc2sc3c(-c4cccc5c(=O)cc(N6CC7CCC(C6)O7)oc45)cccc3c2c1 [NU5455]
inhibition at 1 µM: -3.3%
